Test system: Staphylococcus Aureus bacteria strain ATCC 6538
Assay: Sustained/control release of anti-bacterial agent from the polymeric product at various temperatures, AATCC 147 zone of inhibition (FIG. 2)
Type: cell-based
Conditions: polymeric product containing reservoir (melting range of 35-65° C.) with triclosan, 24 hr contact time
Procedure: The activity of an anti-bacterial agent in the polymeric product was conducted by Qualitative AATCC 147 method. The test was conducted with Staphylococcus Aureus bacteria strain ATCC 6538. Observation of growth under the specimen accompanied with no zone of inhibition was considered as No (i.e. failed test with no anti-bacterial activity) and no growth under the specimen, with or without zone of inhibition was considered as Yes (passed test with anti-bacterial activity).
Also the polymeric product containing reservoir (melting range of 35-65° C.) was incorporated with triclosan as anti-bacterial ingredient. The product was washed and dried at ambient temperature of 20° C. after which the fabric was maintained at said temperature for 30 minutes and measured for efficacy. Anti-bacterial analysis was done based on AATCC 147 with 24 hr contact time and the zone of inhibition (in mm) was measured. The sustained/control release of an anti-bacterial agent in the polymeric product was studied at various temperatures. The results are displaced in FIG. 2 of accompanying drawings.

Oc1cc(Cl)ccc1Oc1ccc(Cl)cc1Cl [triclosan, 5-chloro-2-(2,4-dichlorophenoxy)phenol]
release profile of anti-bacterial agent (zone of inhibition): sustained/control release profile with temperature
